Experimental data: patent US20130303509A1, “NAMPT INHIBITORS” (AbbVie Inc., priority 2012, published 2013)

System: PC3 cells
Assay: NAMPT Cell Proliferation Assay
Assay type: cell-based
Conditions: Homo sapiens, PC-3, 120 h, 5 days incubation, cell viability by Cell Titer Glo
In short: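 Seeded at 500 cells/well in RPMI with 10% heat-inactivated FBS and left to attach overnight at 37° C, 5% CO2. Compounds were added as 10-fold dilutions […] for 5 days, then viability was read by CellTiter-Glo. IC50s came from sigmoidal fits of percent inhibition.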

Row | SMILES | IC50 [nM]
1 | CCOCCC(=O)N1CCC(Oc2ccc(NC(=O)C3CN(c4cccnc4)C3)cc2)CC1 [Example 39, N-(4-{[1-(3-ethoxypropanoyl)piperidin-4-yl]oxy}phenyl)-1-(pyridin-3-yl)azetidine-3-carboxamide] | 7.38
2 | O=C(Nc1ccc(C2CCN(C(=O)c3ccc(F)cc3)CC2)cc1)C1CN(c2ccnnc2)C1 [Example 529, N-{4-[1-(4-fluorobenzoyl)piperidin-4-yl]phenyl}-1-(pyridazin-4-yl)azetidine-3-carboxamide] | 9.33
3 | Cn1cccc1C(=O)N1CCC(Oc2ccc(NC(=O)C3CN(c4cccnc4)C3)cc2)CC1 [Example 64, N-[4-({1-[(1-methyl-1H-pyrrol-2-yl)carbonyl]piperidin-4-yl}oxy)phenyl]-1-(pyridin-3-yl)azetidine-3-carboxamide] | 6.32
4 | O=C(Nc1ccc(C2CCN(C(=O)c3cccc(C(F)(F)F)c3)CC2)cc1)[C@H]1CCN(c2cccnn2)C1 [Example 711, (3S)-1-(pyridazin-3-yl)-N-(4-{1-[3-(trifluoromethyl)benzoyl]piperidin-4-yl}phenyl)pyrrolidine-3-carboxamide] | 59.5
5 | O=C(Nc1ccc(S(=O)(=O)C2CCN(C(=O)c3ccc(Cl)cc3)CC2)cc1)C1CN(c2cccnn2)C1 [Example 573, N-(4-{[1-(4-chlorobenzoyl)piperidin-4-yl]sulfonyl}phenyl)-1-(pyridazin-3-yl)azetidine-3-carboxamide] | 81.9
6 | COCCn1nc(C(C)(C)C)cc1-c1ccc(NC(=O)C2CN(c3cccnn3)C2)cc1 [Example 865, N-{4-[3-tert-butyl-1-(2-methoxyethyl)-1H-pyrazol-5-yl]phenyl}-1-(pyridazin-3-yl)azetidine-3-carboxamide] | 4.06
7 | O=C(Nc1ccc(OC2CCN(C(=O)CC(F)(F)F)CC2)cc1)C1CN(c2cccnn2)C1 [Example 252, 1-(pyridazin-3-yl)-N-(4-{[1-(3,3,3-trifluoropropanoyl)piperidin-4-yl]oxy}phenyl)azetidine-3-carboxamide] | 9.51
8 | CC(C)(N)C(=O)N1CCC(c2ccc(NC(=O)C3CN(c4cccnc4)C3)cc2)CC1 [Example 602, N-{4-[1-(2-methylalanyl)piperidin-4-yl]phenyl}-1-(pyridin-3-yl)azetidine-3-carboxamide] | 2
9 | CC(C)C(=O)N1CCC(c2ccc(C(=O)N[C@H]3CCN(c4ccc(Cl)nn4)C3)cc2)CC1 [Example 749, N-[(3S)-1-(6-chloropyridazin-3-yl)pyrrolidin-3-yl]-4-[1-(2-methylpropanoyl)piperidin-4-yl]benzamide] | > 10000
10 | O=C(Nc1ccc(C2CCN(C(=O)c3cc(F)ccc3F)CC2)cc1)[C@H]1CCN(c2cccnn2)C1 [Example 645, (3S)-N-{4-[1-(2,5-difluorobenzoyl)piperidin-4-yl]phenyl}-1-(pyridazin-3-yl)pyrrolidine-3-carboxamide] | 3.3
11 | CCOCCC(=O)N1CCC(c2ccc(NC(=O)[C@H]3CCN(c4cccnn4)C3)cc2)CC1 [Example 694, (3S)-N-{4-[1-(3-ethoxypropanoyl)piperidin-4-yl]phenyl}-1-(pyridazin-3-yl)pyrrolidine-3-carboxamide] | 71.6
12 | CC(C)(C)C(=O)N1CC[C@H](Oc2ccc(NC(=O)[C@H]3CCN(c4cccnn4)C3)cc2)C1 [Example 827, (3S)—N-(4-{[(3S)-1-(2,2-dimethylpropanoyl)pyrrolidin-3-yl]oxy}phenyl)-1-(pyridazin-3-yl)pyrrolidine-3-carboxamide] | 73.7
13 | O=C(Nc1ccc(C2CCN(C(=O)c3ccc(O)cc3)CC2)cc1)C1CN(c2cccnn2)C1 [Example 344, N-{4-[1-(4-hydroxybenzoyl)piperidin-4-yl]phenyl}-1-(pyridazin-3-yl)azetidine-3-carboxamide] | 8.9
14 | CCCC(=O)N1CCC(c2ccc(NC(=O)C3CN(c4cccnc4C)C3)cc2)CC1 [Example 194, N-[4-(1-butanoylpiperidin-4-yl)phenyl]-1-(2-methylpyridin-3-yl)azetidine-3-carboxamide] | 124
